Our source for the IC50 values is US11104674B2 (Hoffmann-La Roche Inc., priority 2016, dated 2021).

pIC50: −log10 of the molar value.

The test system of this assay is HBsAg. Briefly: HBsAg assay (chemiluminescence immunoassay of secreted HBsAg). The settings on record: Hepatitis B virus, HepG2.2.15, HBsAg secretion, HepG2.2.15 cells, CLIA of culture supernatant. It counts as cell-based, HBV. As for the experimental part: HepG2.2.15 cells (Acs et al. Proc Natl Acad Sci USA, 84, (1987), 4641-4), a constitutively HBV-expressing cell line were cultured in DMEM+Glutamax-I medium (Invitrogen, Carlsbad, Calif., USA), supplemented with 10% fetal bovine serum (Invitrogen) and G418 (Invitrogen) at a final concentration of 200 mg/L and maintained in 5% CO2 at 37° C.
HepG2.2.15 cells were seeded in duplicate into white, 96-well plates at 1.5×10^4 cells/well. The cells were treated with a three-fold serial dilution series of the compounds in DMSO. The final DMSO concentration in all wells was 1% and DMSO was used as no drug control.
The HBsAg chemiluminescence immunoassay (CLIA) kit (Autobio Diagnostics Co., Zhengzhou, China, Catalog number: CL0310-2) was used to measure the levels of secreted HBV antigens semi-quantitatively. For the detection 50 μL/well culture supernatant was used and HBsAg was quantified using HBsAg chemiluminescence immunoassay (CLIA) kit (Autobio Diagnostics Co., Zhengzhou, China, Catalog number: CL0310-2), 50 μL of the supernatant was transferred to the CLIA assay plate and 50 μL of enzyme conjugate reagent was added into each well. The plates were sealed and gently agitated for 1 hour at room temperature. The supernatant-enzyme-mixture was discarded and wells were washed 6 times with 300 μL of PBS.
The residual liquid was removed by plating the CLIA plate right side down on absorbent tissue paper. 25 μL of substrates A and B were added to each well. Luminance was measured using a luminometer (Mithras LB 940 Multimode Microplate Reader) after 10 minutes incubation. Dose-response curves were generated and the IC50 value was extrapolated by using the E-WorkBook Suite (ID Business Solutions Ltd., Guildford, UK). The IC50 was defined as the compound concentration (or conditioned media log dilution) at which HBsAg secretion was reduced by 50% compared to the no drug control.
The compounds according to formula I were tested for their capacity to inhibit HBsAg as described herein.
Regarding `CC1c2cnc(-c3ncccn3)nc2CCN1c1cc(F)cc(N2CCOC(CC(=O)O)C2)n1` (stereo not shown) [Example 29, 2-[4-[4-fluoro-6-(5-methyl-2-pyrimidin-2-yl-7,8-dihydro-5H-pyrido[4,3-d]pyrimidin-6-yl)-2-pyridyl]morpholin-2-yl]acetic acid], the pIC50 is 6.14.

`CC1c2cnc(-c3ncccn3)nc2CCN1c1cc(N2CCCC2CO)cc(F)n1` (stereo not shown) [Example 30, [1-[2-fluoro-6-(5-methyl-2-pyrimidin-2-yl-7,8-dihydro-5H-pyrido[4,3-d]pyrimidin-6-yl)-4-pyridyl]pyrrolidin-2-yl]methanol] had a pIC50 of 8.15.

`CC1c2cnc(-c3ncccn3)nc2CCN1c1cc(F)cc(N2CCCC2CO)n1` (stereo not shown) [Example 31, [1-[4-fluoro-6-(5-methyl-2-pyrimidin-2-yl-7,8-dihydro-5H-pyrido[4,3-d]pyrimidin-6-yl)-2-pyridyl]pyrrolidin-2-yl]methanol]: the pIC50 is 7.85. The figure for `CC1c2cnc(-c3ncccn3)nc2CCN1c1cc(N2CCCC2C(=O)O)cc(F)n1` (stereo not shown) [Example 32, 1-[2-fluoro-6-(5-methyl-2-pyrimidin-2-yl-7,8-dihydro-5H-pyrido[4,3-d]pyrimidin-6-yl)-4-pyridyl]pyrrolidine-2-carboxylic acid] is 6.41.

For `CC1c2cnc(-c3ncccn3)nc2CCN1c1cc(F)cc(N2CCCC2C(=O)O)n1` (stereo not shown) [Example 33, 1-[4-fluoro-6-(5-methyl-2-pyrimidin-2-yl-7,8-dihydro-5H-pyrido[4,3-d]pyrimidin-6-yl)-2-pyridyl]pyrrolidine-2-carboxylic acid], the negative logarithm of the IC50 (pIC50) was 7.03. The figure for `COCC1CCCN1c1cc(F)nc(N2CCc3nc(-c4ncccn4)ncc3C2C)c1` (stereo not shown) [Example 34, 6-[6-fluoro-4-[2-(methoxymethyl)pyrrolidin-1-yl]-2-pyridyl]-5-methyl-2-pyrimidin-2-yl-7,8-dihydro-5H-pyrido[4,3-d]pyrimidine] is 7.27. Under `COCC1CCCN1c1cc(F)cc(N2CCc3nc(-c4ncccn4)ncc3C2C)n1` (stereo not shown) [Example 35, 6-[4-fluoro-6-[2-(methoxymethyl)pyrrolidin-1-yl]-2-pyridyl]-5-methyl-2-pyrimidin-2-yl-7,8-dihydro-5H-pyrido[4,3-d]pyrimidine] stands 7.48; under `CC1c2cnc(-c3ncccn3)nc2CCN1c1cc(N2CCC(O)C2)cc(F)n1` (stereo not shown) [Example 36, 1-[2-fluoro-6-(5-methyl-2-pyrimidin-2-yl-7,8-dihydro-5H-pyrido[4,3-d]pyrimidin-6-yl)-4-pyridyl]pyrrolidin-3-ol], 7.92. Under `CC1c2cnc(-c3ncccn3)nc2CCN1c1cc(F)cc(N2CCC(O)C2)n1` (stereo not shown) [Example 37, 1-[4-fluoro-6-(5-methyl-2-pyrimidin-2-yl-7,8-dihydro-5H-pyrido[4,3-d]pyrimidin-6-yl)-2-pyridyl]pyrrolidin-3-ol] stands 7.96.

Compound `CC1c2cnc(-c3ncccn3)nc2CCN1c1cc(N2CCC(C(=O)O)C2)cc(F)n1` (stereo not shown) [Example 38, 1-[2-fluoro-6-(5-methyl-2-pyrimidin-2-yl-7,8-dihydro-5H-pyrido[4,3-d]pyrimidin-6-yl)-4-pyridyl]pyrrolidine-3-carboxylic acid] showed a pIC50 of 6.00. Under `CC1c2cnc(-c3ncccn3)nc2CCN1c1cc(F)cc(N2CCC(C(=O)O)C2)n1` (stereo not shown) [Example 39, 1-[4-fluoro-6-(5-methyl-2-pyrimidin-2-yl-7,8-dihydro-5H-pyrido[4,3-d]pyrimidin-6-yl)-2-pyridyl]pyrrolidine-3-carboxylic acid] stands 6.97; under `CC1COCCN1c1cc(F)nc(N2CCc3nc(-c4ncccn4)ncc3C2C)c1` (stereo not shown) [Example 40, 4-[2-fluoro-6-(5-methyl-2-pyrimidin-2-yl-7,8-dihydro-5H-pyrido[4,3-d]pyrimidin-6-yl)-4-pyridyl]-3-methyl-morpholine], 8.00.

In turn, `CC1COCCN1c1cc(F)cc(N2CCc3nc(-c4ncccn4)ncc3C2C)n1` (stereo not shown) [Example 41, 4-[4-fluoro-6-(5-methyl-2-pyrimidin-2-yl-7,8-dihydro-5H-pyrido[4,3-d]pyrimidin-6-yl)-2-pyridyl]-3-methyl-morpholine] showed a pIC50 of 7.77.
